# From US5045190A, “Chromatography apparatus” (priority 1990, dated 1991)
# B1: trypsin: bovine trypsin (twice recrystallized) (protein, UniProt P00760 24-246, looked up)
# Serine protease 1: IVGGYTCGANTVPYQVSLNSGYHFCGGSLINSQWVVSAAHCYKSGIQVRLGEDNINVVEGNEQFISASKSIVHPSYNSNTLNNDIMLIKLKSAASLNSRVASISLPTSCASAGTQCLISGWGNTKSSGTSYPDVLKCLKAPILSDSSCKSAYPGQITSNMFCAGYLEGGKDSCQGDSGGPVVCSGKLQGIVSWGSGCAQKNKPGVYTKVCNYVSWIKQTIASN
# Columns and labels:
# [1] = reported pI; cited from earlier work
# [2] = target: T1, horse serum cholinesterase (Equus caballus, UniProt P81908); assay: Inhibition of horse (serum) cholinesterase, Ki by the method of Dixon; type: biochemical
# T1 construct: purchased Sigma Chemicals Co; host or cells: horse serum
# T1 sequence (P81908 whole entry): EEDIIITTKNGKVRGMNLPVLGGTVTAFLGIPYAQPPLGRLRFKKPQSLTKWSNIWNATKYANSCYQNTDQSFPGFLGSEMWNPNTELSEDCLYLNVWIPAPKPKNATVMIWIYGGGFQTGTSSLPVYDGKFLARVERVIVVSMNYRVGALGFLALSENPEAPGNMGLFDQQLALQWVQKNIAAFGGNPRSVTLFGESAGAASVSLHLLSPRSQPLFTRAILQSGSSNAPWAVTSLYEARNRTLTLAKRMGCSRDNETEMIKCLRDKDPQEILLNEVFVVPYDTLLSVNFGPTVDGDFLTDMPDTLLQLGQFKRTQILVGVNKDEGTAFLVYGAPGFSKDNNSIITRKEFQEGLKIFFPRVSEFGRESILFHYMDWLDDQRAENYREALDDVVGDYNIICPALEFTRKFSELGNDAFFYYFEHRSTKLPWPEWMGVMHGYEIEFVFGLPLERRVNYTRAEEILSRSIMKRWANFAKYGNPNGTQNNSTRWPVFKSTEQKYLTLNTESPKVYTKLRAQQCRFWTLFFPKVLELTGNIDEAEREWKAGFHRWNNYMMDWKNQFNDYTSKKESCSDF
# Source text: E. coli beta-galactosidase, chromatographically purified, was obtained from Worthington Biochemicals. P-aminophenyl-beta-D-thiogalactopyranoside (APGP) was purchased from Calbiochem. O-nitrophenyl-beta-D-galactopyranoside (ONPG), bovine trypsin (twice recrystallized), DL-benzoylarginine-p-nitroanilide (DL-BAPNA), p-aminobenzamidine (PAB), cholinesterase (affinity purified from horse serum), procainamide, dithiobisnitrobenzoate, and butyrylthiocholine were obtained from Sigma Chemicals Co. Tresyl chloride (2,2,2-trifluoroethanesulfonyl chloride) was obtained from Fluka and ethyl-(dimethyl-aminopropyl)carbodiimide (EDC) from Aldrich. The surfactant Sandopan JA36 was obtained from Sandoz Chemicals and the surfactant octaethylene glycol n-hexadecyl ether (C16 E8) was obtained from Nikkol Chemicals Co. (Japan). The structures of these surfactants is as shown below: [drawing 1]
# The molar extinction coefficient of C16 E8 -pyridinium at 259 nm is […] (by dry weight). The product final yield is 71.9%.
# [3] = Stability of trypsin solution at 4 degrees Celsius (BAPNA activity assay); type: physicochemical; settings: 2.9 mg/ml in Buffer A, over three days
# Experimental: This example was conducted in accordance with Example 18 above. The activity of trypsin solutions were determined by a method similar to that described by Erlanger et al., Arch. Biochem. Biophys. 95, 271 (1961), using BAPNA as substrate. An aliquot (0.5 milliliter) of the trypsin solution to be assayed was diluted in 1.5 milliliters of 0.05 M Tris-HCl buffer, pH 8.15, containing 0.02 M CaCl2 in a 3.5 milliliter disposable polystyrene cuvette. A 100 microliter aliquot of a 10^-2 M solution of BAPNA in dimethylsulfoxide was then added to this solution. The rate of change in absorbance at 388 nm at 25 degrees Celsius was then measured in a Schimadzu UV 160 spectrophotometer. One unit of activity was defined as the amount of enzyme causing an absorbance change of 0.1 per minute under these conditions.
# A solution of trypsin (2.9 milligrams of protein per milliliter) was prepared in Buffer A and several activity assays were made over the course of three days to determine its stability at 4 degrees Celsius. […] In this case the eluted peaks were collected and assayed for enzymatic activity.
molecule,measurement,setting,value
"Lysozyme: test protein, isoelectric point (pI) of 11.0",isoelectric point (pI),[1],11.0
"CCCCCCCCCCCCCCCCOCCOCCOCCOCCOCCOCCOCCOCCO [Unmodified surfactant, octaethylene glycol n-hexadecyl ether, reference compound]",effect on the activity of horse cholinesterase,[2]; even at concentrations as high as 10^-3 M,does not have any effect
"CCCCCCCCCCCCCCCCOCCOCCOCCOCCOCCOCCOCCOCC[n+]1ccccc1 [C16 E8 -pyridinium, N-(n-hexadecyloctaethoxy)pyridinium]",Ki,"[2]; horse serum cholinesterase, method of Dixon, read-out: Ki toward horse serum cholinesterase",514 nM
same,inhibition of the enzymatic activity of horse cholinesterase,"[2]; surface active HPLC peak, retention time 127.5 minutes",significantly inhibits
B1,loss in tryptic activity (stability of solution),[3],No significant loss in tryptic activity was observed
